This note sets out measurements from article PMC12535377, “Synaptic and intrinsic plasticity mediated by CCK-type signaling coordinates behavioral changes during motivational state shifts” (Cell reports, 2025).

One test has as its target T1, apCCKR1 (Aplysia californica, UniProt A0ABM1AF30).
T1 sequence (A0ABM1AF30 1-261): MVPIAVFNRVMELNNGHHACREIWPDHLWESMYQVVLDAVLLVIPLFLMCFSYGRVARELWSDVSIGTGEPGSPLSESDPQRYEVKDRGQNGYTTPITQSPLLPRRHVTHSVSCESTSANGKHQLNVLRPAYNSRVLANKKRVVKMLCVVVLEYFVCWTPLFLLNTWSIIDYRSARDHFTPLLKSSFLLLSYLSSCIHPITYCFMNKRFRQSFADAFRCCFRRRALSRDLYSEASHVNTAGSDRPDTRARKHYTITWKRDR
In words: IP1 accumulation assay, apCCKR1 in CHO-K1 cells. As to conditions: CHO-K1 cells transfected with receptor and promiscuous Gαq; for EC50: log[EC50] with negative sign, mean ± SD, at least three independent experiments, SD, read-out: apCCKR1: log[EC50] (converted); for pEC50: average of at least three independent experiments, read-out: apCCKR1: EC50. The format is cell-based. On the procedure: We tested receptor activation using the IP1 (inositol monophosphate) accumulation assay that measures IP1 generated in the Gαq pathway (see STAR Methods).
CHO-K1 cells were cultured in F-12K medium (Gibco, 21127–022) with 10% fetal bovine serum at 37°C in 5% CO2. Before transfection, cells were grown in 35 mm diameter tissue culture-treated dishes to 85% confluence. For transfection, 1.5 μg apCCKR plasmids or control plasmids (in pcDNA3.1(+) vector) and 1.5 μg promiscuous Gαq-family protein (in pcDNA3.1(+) vector) were mixed with 200 μL Opti-MEM (Gibco, 11058021), and 8 μL Turbofect (Thermo Fisher Scientific, R0531). This promiscuous Gαq protein contains substitutions to increase promiscuity,[148] and could bind to most GPCRs, ensuring an IP1 response when a potential ligand binds to its specific GPCR, irrespective of the GPCR’s normal association with any specific Gα proteins. The DNA mixture was incubated at room temperature for 15 min and then added dropwise to the cells in F-12K medium with 10% FBS (no antibiotics), followed by incubation at 37°C in 5% CO2 overnight. The next day, cells were detached using trypsin and reseeded in white 96-well half-area tissue culture-treated plates (Corning, 3688) at a density of 20,000 cells per well in F-12K and 10% FBS, and incubated at 37°C in 5% CO2 overnight. Activation of putative apCCK or related receptor was detected by monitoring IP1 accumulation using IPOne Detection Kit (Cisbio, 62IPAPEB), as previously described.[64],[65],[141],[149],[150]
Dose-response curves and bar graphs for experimental data were plotted using Prism software (GraphPad version 8). Data are presented as mean ± SEM of at least three independent experiments, except that LogEC50 values reported in the main text are the mean ± standard deviation (SD) from at least three independent experiments. Statistical tests were performed using Prism software. They included Student’s t-test, one-way or two-way ANOVA, as appropriate. […] Electrophysiological recordings were digitized online using AxoScope software version 10.7 (Molecular Devices, LLC, Sunnyvale, CA) and were plotted by CorelDraw version 2018 (Corel Corp., Ottawa, Canada).

Test [1] concerns CBI-2-elicited feeding motor programs. In words: CBI-2-elicited feeding motor programs in isolated cerebral and buccal ganglia. The note with it: for Protraction duration of CBI-2 programs: 10^-6 M and 10^-5 M tested; for B8 activity (frequency) during retraction: CBI-2 programs, 10^-6 M and 10^-5 M; for Feeding program effect, summary grade: Table S1 summary in words. Also on record: species or system Aplysia californica. On the procedure:
To explore the neural basis of the behavioral effects of apCCKs, we examined their modulation of feeding-motor programs in isolated ganglia. All eight forms of apCCKs were tested on programs induced by CBI-2, a command-like interneuron that is active during food-elicited feeding behavior[56] and provides potent excitatory inputs to buccal central pattern generator (CPG) interneurons,[54],[77] orchestrating ingestive motor programs (Figure S23A). Stable single-cycle motor programs were evoked by stimulating CBI-2 at 8–10 Hz throughout the protraction phase with a 90-s intertrial interval. Two concentrations, 10^−6 M and 10^−5 M, of apCCKs were tested.
Intracellular and extracellular recordings were made as described previously.[57]–[59],[61],[151] To prevent movements of ganglia caused by myoactive apCCK (especially [sY8]-apCCK1 and [sY6, sY8]-apCCK1) during bath application, we treated the ganglia with 0.8% protease IX for 1–2 min prior to desheathing. Subsequently, ganglia were desheathed, transferred to a recording chamber containing ~1.5 mL of ASW (460 mM NaCl, 10 mM KCl, 11mM CaCl2, 55 mM MgCl2, and 10 mM HEPES, pH 7.6), continuously perfused at 0.3 mL/min, and maintained at 14°C–17°C. The experiments examining the effects of apCCKs on excitability of B20/B34/B61/62/B65/B64 neurons were performed in a high divalent saline (368 mM NaCl, 8 mM KCl, 13.8 mM CaCl2, 115 mM MgCl2, and 10 mM HEPES, pH 7.6), which increases the spiking threshold of neurons and therefore curtails polysynaptic influences. Intracellular recordings were obtained using 5–10 MΩ sharp microelectrodes filled with an electrolyte (0.6 M K2SO4 plus 60 mM KCl). Extracellular recordings were acquired from polyethylene suction electrodes. Grass S88 and WPI Pulsemaster A300 stimulators were used to provide timing signals for intracellular and extracellular stimulation. To determine the effects of various forms of apCCKs on Aplysia feeding programs, we performed experiments with the cerebral and buccal ganglia. Freshly made apCCK solution in ASW was perfused into the recording chamber. Feeding-motor programs were elicited by stimulation of command-like neuron CBI-2 at 8–10 Hz or stimulation of the EN at 2 Hz, 3 ms, 15 V, and were monitored by bursting activity of the I2 nerve of the buccal ganglion.[58],[59],[61] Typically, we recorded from motor neuron B8, and one interneuron, e.g., B40 or B20. To determine effects of apCCKs on synaptic strength, we stimulated presynaptic neuron, CBI-2, B34 (plus 1 nA current) or B65 at 10 Hz for 2 s for several trials and waited 1 min between each trial. The stimulation duration for each trial was set at 2 s because this allows the expression of synaptic facilitation without evoking too many spikes. Typically, the amplitude of the last EPSP at each concentration of peptides was quantified unless otherwise stated.

pEC50: −log10 of the molar value. Read-outs that look alike come from different tables or passages of the source. Non-standard residues stand in square brackets, D forms with d. Residues, ends and D or L forms follow the SMILES beside them. sY = N[C@@H](Cc1ccc(OS(=O)(=O)O)cc1)C(=O)O Bounds are passed on as bounds.

Usually EC50 stands for the concentration at which the effect is half-maximal. Usually pEC50 stands for the EC50 on a negative log10 scale, so that one unit is a factor of ten.

With `CC[C@H](C)[C@H](NC(=O)CNC(=O)[C@H](Cc1ccc(OS(=O)(=O)O)cc1)NC(=O)[C@H](CC(=O)O)NC(=O)CNC(=O)[C@H](Cc1ccc(OS(=O)(=O)O)cc1)NC(=O)[C@@H](N)CO)C(=O)NCC(=O)NCC(=O)NCC(=O)N[C@@H](CCCNC(=N)N)C(=O)N[C@@H](Cc1ccccc1)C(N)=O` [[sY2, sY5]-apCCK2] (H-S[sY]GD[sY]GIGGGRF-NH2), at apCCKR1, the EC50 was 331 nM. For the same compound, in test [1], the “Protraction duration of CBI-2 programs” value is recorded as “shortened”; the “B8 activity (frequency) during retraction” value was “reduced”; the “Feeding program effect, summary grade” value is recorded as “Weak”.
Take `CC[C@H](C)[C@H](NC(=O)CNC(=O)[C@H](Cc1ccc(O)cc1)NC(=O)[C@H](CC(=O)O)NC(=O)CNC(=O)[C@H](Cc1ccc(OS(=O)(=O)O)cc1)NC(=O)[C@@H](N)CO)C(=O)NCC(=O)NCC(=O)NCC(=O)N[C@@H](CCCNC(=N)N)C(=O)N[C@@H](Cc1ccccc1)C(N)=O` [[sY2]-apCCK2] (H-S[sY]GDYGIGGGRF-NH2): the pEC50 at apCCKR1 was < 5.00. The “Feeding program effect, summary grade” value in test [1] is “No effect”.
Regarding `CC[C@H](C)[C@H](NC(=O)CNC(=O)[C@H](Cc1ccc(OS(=O)(=O)O)cc1)NC(=O)[C@H](CC(=O)O)NC(=O)CNC(=O)[C@H](Cc1ccc(O)cc1)NC(=O)[C@@H](N)CO)C(=O)NCC(=O)NCC(=O)NCC(=O)N[C@@H](CCCNC(=N)N)C(=O)N[C@@H](Cc1ccccc1)C(N)=O` [[sY5]-apCCK2] (H-SYGD[sY]GIGGGRF-NH2), the EC50 on apCCKR1 is 851 nM. Besides, in test [1], the “Protraction duration of CBI-2 programs” value was “shortened”; the “B8 activity (frequency) during retraction” value was “reduced”; the “Feeding program effect, summary grade” value is reported as “Moderate”.
Consider H-SYGDYGIGGGRF-NH2 [apCCK2], for which, at apCCKR1, the pEC50 is < 5.00. In addition, the “Feeding program effect, summary grade” value in test [1] was “No effect”.
